Values joined by “and” are separate entries in the source; they are usually repeats but may differ in a detail not shown here. Equal entries are not always repeated. Where two headings read alike, the source gives them in different places. One block for each compound: values may come before it.
Key:
[1] = Half life of NONOates (diazeniumdiolates) at 37° C., pH 7.4; assay type: physicochemical
Description: Diazeniumdiolates, more commonly referred to as NONOates, have been extremely useful in the investigation of the biological effects of nitric oxide (NO) and related nitrogen oxides. […] FIG. 55 illustrates an exemplary chemical reaction.

[2] = system: coronaries of pigs; conditions: delivered intrapericardially; cited from earlier work
[3] = system: rats with MI; conditions: cited from earlier work
[4] = oral, cited from earlier work
[5] = system: mice with aortic banding; conditions: mouse, in vivo; cited from earlier work
[6] = molecular target: T1, aldosterone receptors (Homo sapiens, UniProt P08235); conditions: cited from earlier work
T1 construct: host or cells: heart failure patients (in vivo)
T1 sequence (P08235 1-984): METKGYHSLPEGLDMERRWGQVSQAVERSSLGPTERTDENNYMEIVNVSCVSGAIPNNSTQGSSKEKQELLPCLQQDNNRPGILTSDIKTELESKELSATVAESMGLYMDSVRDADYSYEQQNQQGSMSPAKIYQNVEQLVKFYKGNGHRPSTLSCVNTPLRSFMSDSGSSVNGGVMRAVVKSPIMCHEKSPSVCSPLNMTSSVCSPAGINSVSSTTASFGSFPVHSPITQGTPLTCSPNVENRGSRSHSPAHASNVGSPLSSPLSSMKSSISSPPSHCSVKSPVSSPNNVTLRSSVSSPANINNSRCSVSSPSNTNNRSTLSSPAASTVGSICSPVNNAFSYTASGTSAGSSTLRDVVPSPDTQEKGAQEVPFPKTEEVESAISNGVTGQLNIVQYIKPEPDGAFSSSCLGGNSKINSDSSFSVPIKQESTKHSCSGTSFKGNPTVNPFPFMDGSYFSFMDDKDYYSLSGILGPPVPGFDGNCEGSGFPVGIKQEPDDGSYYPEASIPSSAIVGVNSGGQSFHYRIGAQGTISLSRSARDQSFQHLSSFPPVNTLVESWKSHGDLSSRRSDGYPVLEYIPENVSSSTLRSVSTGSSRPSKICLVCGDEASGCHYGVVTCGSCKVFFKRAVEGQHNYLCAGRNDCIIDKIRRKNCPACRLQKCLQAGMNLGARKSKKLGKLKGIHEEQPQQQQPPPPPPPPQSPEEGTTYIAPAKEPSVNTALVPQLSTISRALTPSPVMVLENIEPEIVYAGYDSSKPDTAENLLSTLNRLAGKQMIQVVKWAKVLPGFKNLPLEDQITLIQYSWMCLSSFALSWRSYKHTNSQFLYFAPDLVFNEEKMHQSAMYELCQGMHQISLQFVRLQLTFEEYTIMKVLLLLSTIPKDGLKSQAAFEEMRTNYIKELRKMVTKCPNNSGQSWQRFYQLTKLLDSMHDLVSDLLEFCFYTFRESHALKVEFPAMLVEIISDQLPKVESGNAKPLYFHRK

[7] = cited from earlier work

Structure (SMILES): CN(C)/[N+]([O-])=N/[O-].[Na+] [Compound 2, Sodium (Z)-1-(N,N-Dimthylanimo)diazen-1-ium-1,2-dilate]
Half Life 37° C., pH 7.4 [1]: 2 min

Structure (SMILES): COCON=[N+]([O-])N1CCNCC1 [Compound 7, O^2-Methozymethyl 1-(Piperazin-1-yl)diazen-1-ium-1,2-diolate]
Half Life 37° C., pH 7.4 [1]: 17 days

Structure (SMILES): CC(=O)O[C@H]1C(=O)[C@@]2(C)[C@H]([C@H](OC(=O)c3ccccc3)[C@]3(O)C[C@H](OC(=O)[C@H](O)[C@@H](NC(=O)c4ccccc4)c4ccccc4)C(C)=C1C3(C)C)[C@]1(OC(C)=O)CO[C@@H]1C[C@@H]2O [Paclitaxel]
neointimal proliferation in the coronaries in response to balloon injury [2]: inhibit neointimal proliferation

Structure (SMILES): CO[C@H]1C[C@@H]2CC[C@@H](C)[C@@](O)(O2)C(=O)C(=O)N2CCCC[C@H]2C(=O)O[C@H]([C@H](C)C[C@@H]2CC[C@@H](OCCO)[C@H](OC)C2)CC(=O)[C@H](C)/C=C(\C)[C@@H](O)[C@@H](OC)C(=O)[C@H](C)C[C@H](C)/C=C/C=C/C=C/1C [everolimus]
EF ([3]; compared to untreated MI rats): significant increase | LV end-diastolic diameter ([3]; compared to untreated MI rats): significant reduction | reduction of myocyte size ([3]; rat, in vivo): 33%

Structure (SMILES): CO[C@H]1C[C@@H]2CC[C@@H](C)[C@@](O)(O2)C(=O)C(=O)N2CCCC[C@H]2C(=O)O[C@H]([C@H](C)C[C@@H]2CC[C@@H](O)[C@H](OC)C2)CC(=O)[C@H](C)/C=C(\C)[C@@H](O)[C@@H](OC)C(=O)[C@H](C)C[C@H](C)/C=C/C=C/C=C/1C [sirolimus]
patients who experienced side effects (mild to severe) ([4]; 2 mg daily): 43% | patients who experienced side effects (mild to severe) ([4]; 5 mg daily): 66% | body weight, lung weight, or liver weight [5]: without affecting

Structure (SMILES): CC(=O)S[C@@H]1CC2=CC(=O)CC[C@]2(C)[C@H]2CC[C@@]3(C)[C@@H](CC[C@@]34CCC(=O)O4)[C@H]12 [spironolactone]
blocking the aldosterone receptors and decreasing atrial natriuretic peptide concentrations ([6]; dose of 12.5 to 25 mg daily): effective | incidence of serious hyperkalemia ([6]; high-risk heart failure patients, with ACE inhibitor): low incidence | risk of both morbidity and death ([6]; high-risk heart failure patients): significantly reduced | daily dose at which serious hyperkalemia occurs most frequently ([6]; in vivo): ≥ 50 mg | blood pressure decrease ([7]; doses above 150 mg): no additional decrease | incidence of gynecomastia ([7]; doses of 50 mg or less): 8.9% | incidence of gynecomastia ([7]; doses of 150 mg or higher): 52.2% | blood pressure decrease ([7]; doses of 25 to 50 mg): 5.3% and 8.5% | blood pressure decrease ([7]; doses of 75 to 100 mg): 12.4% and 12.2%

Second part, the compound after the results:

Half Life 37° C., pH 7.4 [1]: 0.2 min
Structure (SMILES): CN(C)[N+]([O-])=N[O-].[Na+] [Compound 1, Sodium 1-(N,N-Dimthylanimo)diazen-1-ium-1,2-dilate]

Half Life 37° C., pH 7.4 [1]: 3 hrs
Structure (SMILES): NCCCN(CCCN)/[N+]([O-])=N/O [Compound 4]

half-life ([1]; buffer): 20 h
Structure (SMILES): NCCN(CCN)[N+]([O-])=NO [Compound 5, 1-[N-(2-Aminoethyl)-N-(2-ammonioethyl)amino]diazen-1-ium-1,2-diolate]
